According to patent US20260297060A1, “COMPOUNDS FOR THE DEGRADATION OF MUTANT BRAF” (C4 THERAPEUTICS, INC., priority 2023, published 2026):

These compounds were tested against T1, human bile salt export pump (BSEP) efflux transporter (Homo sapiens, UniProt O95342) (assay: BSEP Vesicular Transport Inhibition Assay (IC50 determination)). Conditions: human BSEP (HEK293) vesicles; taurocholate 0.2 μM; 4 mM Mg-ATP; 10 concentrations, 1 replicate.
T1 construct: purchased SOLVO Biotechnology Charles River Laboratories, Szeged, Hungary; host or cells: HEK293 (inside out membrane vesicles)
Type: biochemical
Description: The vesicular transport (VT) assays were performed using inside out membrane vesicles derived from HEK293 cells expressing the specified human bile salt export pump (BSEP) efflux transporter. The membrane vesicles were procured from SOLVO Biotechnology Charles River Laboratories, Szeged, Hungary.
The principle of the assay relies on measuring the accumulation of substrate into inside out vesicles containing the efflux transporter. By utilizing inside out vesicles, the ATP-dependent transport of substrate is directed into the vesicular lumen, where low permeability compounds are then essentially trapped.
For the IC50 screen inhibition assay, 10 concentrations of each compound were tested in the presence of ATP (active transport) in 1 replicate.
The solvent control (DMSO) was tested in the presence of ATP (active transport) and in the presence of AMP (background) in 8 replicates.
Vesicular transport inhibition assays were performed using the specific parameters for each transporter inhibition assay described in Table 53.
Table 54 specifies treatment groups and concentration of compounds, that were examined in the vesicular transport inhibition assay. Detailed data of IC50 screen inhibition assay are shown in Table 55 and detailed data of 1 concentration inhibition assay are shown in Table 56.
The vesicular transport inhibition assay was performed with 4 mM Mg-ATP. For the IC50 screen inhibition assay, 10 concentrations of each compound were tested in the presence of ATP in 1 replicate. For the 1 concentration inhibition assay, 1 concentration of each compound was tested in the presence of ATP (active transport) in 2 replicates. The solvent control (DMSO) was tested in the presence of 4 mM Mg-ATP (active transport) and in the presence of 4 mM AMP (background) in 8 replicates.
The BSEP membrane vesicle suspension was mixed with the ice-cold transport buffer, then the taurocholate probe substrate solution was added (Reaction mixture, 50 μL per well). The compounds were added to the reaction mixture at 1.5-times the final assay concentration. […].
Reaction mixtures and the start reagent (Mg-ATP or AMP in transport buffer) were pre-warmed separately for 15 minutes to reach the incubation temperature of 37° C. […]
The reaction was initiated by the addition of the start reagent (25 μL) to the reaction mixture (diluting the reaction mixture to the final concentration). […] After the 5-minute incubation at 37° C., the reaction was stopped by the addition of 250 μL ice-cold washing mix to each well. […]
The samples were then be transferred to a filter plate and washed with 200 μL cold washing mix5-times to remove any free compounds or taurocholate probe substrate. The amount of taurocholate probe substrate inside the filtered vesicles were determined by liquid scintillation counting. […]

T1 sequence (O95342 whole entry): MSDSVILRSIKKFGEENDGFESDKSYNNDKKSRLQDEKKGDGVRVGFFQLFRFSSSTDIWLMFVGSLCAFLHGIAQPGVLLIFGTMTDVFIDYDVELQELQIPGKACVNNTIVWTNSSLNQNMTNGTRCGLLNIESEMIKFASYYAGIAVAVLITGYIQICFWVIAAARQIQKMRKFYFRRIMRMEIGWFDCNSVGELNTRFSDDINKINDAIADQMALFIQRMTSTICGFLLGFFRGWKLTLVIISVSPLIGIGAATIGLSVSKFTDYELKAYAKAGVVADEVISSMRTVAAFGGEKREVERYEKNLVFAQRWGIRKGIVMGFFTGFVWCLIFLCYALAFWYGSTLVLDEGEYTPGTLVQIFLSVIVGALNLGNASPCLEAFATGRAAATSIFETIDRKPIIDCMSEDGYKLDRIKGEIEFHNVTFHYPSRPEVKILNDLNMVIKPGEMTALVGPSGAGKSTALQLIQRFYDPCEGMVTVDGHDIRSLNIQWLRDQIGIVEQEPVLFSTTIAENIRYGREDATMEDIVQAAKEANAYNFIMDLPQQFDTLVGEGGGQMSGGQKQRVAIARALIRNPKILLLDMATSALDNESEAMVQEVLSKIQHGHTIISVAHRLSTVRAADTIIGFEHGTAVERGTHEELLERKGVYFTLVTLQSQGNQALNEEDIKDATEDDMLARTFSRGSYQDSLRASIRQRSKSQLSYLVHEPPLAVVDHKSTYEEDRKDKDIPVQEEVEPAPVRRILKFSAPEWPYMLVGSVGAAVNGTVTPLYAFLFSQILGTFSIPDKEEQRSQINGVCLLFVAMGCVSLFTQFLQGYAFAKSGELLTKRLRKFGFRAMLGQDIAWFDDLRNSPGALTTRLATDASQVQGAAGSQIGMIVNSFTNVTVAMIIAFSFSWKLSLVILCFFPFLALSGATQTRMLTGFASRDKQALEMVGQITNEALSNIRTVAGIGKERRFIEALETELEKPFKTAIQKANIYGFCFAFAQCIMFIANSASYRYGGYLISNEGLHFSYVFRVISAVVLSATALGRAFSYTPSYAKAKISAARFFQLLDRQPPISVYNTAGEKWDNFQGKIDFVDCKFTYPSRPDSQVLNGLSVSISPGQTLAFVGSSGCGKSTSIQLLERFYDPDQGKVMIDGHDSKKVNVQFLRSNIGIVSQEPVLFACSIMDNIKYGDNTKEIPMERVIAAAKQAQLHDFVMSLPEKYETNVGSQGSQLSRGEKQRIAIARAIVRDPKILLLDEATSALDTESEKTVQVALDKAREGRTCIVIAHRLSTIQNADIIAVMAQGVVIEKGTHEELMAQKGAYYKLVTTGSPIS

Row | SMILES | BSEP Inhibition/IC50
1 | CCN(C)S(=O)(=O)Nc1ccc(F)c(Oc2ccc3ncn(C4CC5(CCN(C6CCC(c7cc8c(cc7F)c(N7CCC(=O)NC7=O)nn8C)CC6F)CC5)C4)c(=O)c3c2)c1C#N (single isomer, unassigned) [Compound 85] | 9.81 µM
2 | CCN(C)S(=O)(=O)Nc1ccc(F)c(Oc2ccc3ncn([C@@H]4CCC5(CCN(C6CCC(c7cc8c(cc7F)c(N7CCC(=O)NC7=O)nn8C)CC6)CC5)C4)c(=O)c3c2)c1C#N (single isomer, unassigned) [Compound 31] | 4.23 µM
3 | COC1CN(S(=O)(=O)Nc2ccc(F)c(Oc3ccc4ncn([C@H]5COC6(CCN(C7CC8(C7)CN(c7cc9c(cc7F)c(N7CCC(=O)NC7=O)nn9C)C8)CC6)C5)c(=O)c4c3)c2C#N)C1 [Compound 246, N-[2-cyano-3-[3-[(3R)-8-[2-[3-(2,4-dioxohexahydropyrimidin-1-yl)-5-fluoro-1-methyl-indazol-6-yl]-2-azaspiro[3.3]heptan-6-yl]-1-oxa-8-azaspiro[4.5]decan-3-yl]-4-oxo-quinazolin-6-yl]oxy-4-fluoro-phenyl]-3-methoxy-azetidine-1-sulfonamide] | 8.79 µM
4 | Cn1nc(N2CCC(=O)NC2=O)c2cc(F)c(N3CC4(CC(N5CCC6(CC5)CC(n5cnc7ccc(Oc8c(F)ccc(NS(=O)(=O)C9CCCC9)c8C#N)cc7c5=O)C6)C4)C3)cc21 [Compound 250, N-[2-cyano-3-[3-[7-[2-[3-(2,4-dioxohexahydropyrimidin-1-yl)-5-fluoro-1-methyl-indazol-6-yl]-2-azaspiro[3.3]heptan-6-yl]-7-azaspiro[3.5]nonan-2-yl]-4-oxo-quinazolin-6-yl]oxy-4-fluoro-phenyl]cyclopentanesulfonamide] | 8.45 µM
5 | CCN(C)S(=O)(=O)Nc1ccc(F)c(Oc2ccc3ncn([C@H]4COC5(CCC(N6CC7(CN(c8ccc(NC9CCC(=O)NC9=O)cc8F)C7)C6)CC5)C4)c(=O)c3c2)c1C#N (stereo partly drawn) [Compound 30, 6-[2-cyano-3-[[ethyl(methyl)sulfamoyl]amino]-6-fluoro-phenoxy]-3-[(3R)-8-[6-[4-[(2,6-dioxo-3-piperidyl)amino]-2-fluoro-phenyl]-2,6-diazaspiro[3.3]heptan-2-yl]-1-oxaspiro[4.5]decan-3-yl]-4-oxo-quinazoline] | 8.52 µM
6 | Cn1nc(N2CCC(=O)NC2=O)c2cc(F)c(N3CC4(CC(N5CCC6(CC5)C[C@@H](n5cnc7ccc(Oc8c(F)ccc(NS(=O)(=O)N9CC%10(CCC%10)C9)c8C#N)cc7c5=O)CO6)C4)C3)cc21 [Compound 254, N-[2-cyano-3-[3-[(3R)-8-[2-[3-(2,4-dioxohexahydropyrimidin-1-yl)-5-fluoro-1-methyl-indazol-6-yl]-2-azaspiro[3.3]heptan-6-yl]-1-oxa-8-azaspiro[4.5]decan-3-yl]-4-oxo-quinazolin-6-yl]oxy-4-fluoro-phenyl]-2-azaspiro[3.3]heptane-2-sulfonamide] | 1.74 µM
7 | CCN(C)S(=O)(=O)Nc1ccc(F)c(Oc2ccc3ncn(C4CC5(CCN(C6CCC(c7cc8c(cc7F)c(N7CCC(=O)NC7=O)nn8C)CC6F)CC5)C4)c(=O)c3c2)c1C#N (single isomer, unassigned) [Compound 86] | 9.88 µM

Same assay, conditions: human BSEP (HEK293) vesicles; taurocholate 0.2 μM; 4 mM Mg-ATP; 10 concentrations, 1 replicate; in nM

Row | SMILES | BSEP Inhibition/IC50
8 | Cn1nc(N2CCC(=O)NC2=O)c2cc(F)c(N3CC4(CC(N5CCC6(CC5)CC(n5cnc7ccc(Oc8c(F)ccc(NS(=O)(=O)N9CC[C@@H](F)C9)c8C#N)cc7c5=O)C6)C4)C3)cc21 [Compound 261, (3R)-N-[2-cyano-3-[3-[7-[2-[3-(2,4-dioxohexahydropyrimidin-1-yl)-5-fluoro-1-methyl-indazol-6-yl]-2-azaspiro[3.3]heptan-6-yl]-7-azaspiro[3.5]nonan-2-yl]-4-oxo-quinazolin-6-yl]oxy-4-fluoro-phenyl]-3-fluoro-pyrrolidine-1-sulfonamide] | >40000
9 | CC(C)S(=O)(=O)Nc1ccc(F)c(Oc2ccc3ncn(C4CC5(CCN(C6CC7(C6)CN(c6cc8c(cc6F)c(N6CCC(=O)NC6=O)nn8C)C7)CC5)C4)c(=O)c3c2)c1C#N (stereo not shown) [Compound 273, N-[2-cyano-3-[3-[7-[2-[3-(2,4-dioxohexahydropyrimidin-1-yl)-5-fluoro-1-methyl-indazol-6-yl]-2-azaspiro[3.3]heptan-6-yl]-7-azaspiro[3.5]nonan-2-yl]-4-oxo-quinazolin-6-yl]oxy-4-fluoro-phenyl]propane-2-sulfonamide] | 20580
10 | CCN(C)S(=O)(=O)Nc1ccc(F)c(Oc2ccc3ncn(C4CC5(CCN(C6CC7(C6)CN(c6cc8c(cc6F)c(N6CCC(=O)NC6=O)nn8C)C7)CC5)C4)c(=O)c3c2)c1C#N (stereo not shown) [Compound 141, 6-[2-cyano-3-[[ethyl(methyl)sulfamoyl]amino]-6-fluoro-phenoxy]-3-[7-[2-[3-(2,4-dioxohexahydropyrimidin-1-yl)-5-fluoro-1-methyl-indazol-6-yl]-2-azaspiro[3.3]heptan-6-yl]-7-azaspiro[3.5]nonan-2-yl]-4-oxo-quinazoline] | >40000
11 | CCN(C)S(=O)(=O)Nc1ccc(F)c(Oc2ccc3ncc(C4CC5(CCN(C6CCC(c7cc8c(cc7F)c(N7CCC(=O)NC7=O)nn8C)CC6)CC5)C4)nc3c2)c1C#N (single isomer, unassigned) [Compound 180, 7-[2-cyano-3-[[ethyl(methyl)sulfamoyl]amino]-6-fluoro-phenoxy]-2-[7-[4-[3-(2,4-dioxohexahydropyrimidin-1-yl)-5-fluoro-1-methyl-indazol-6-yl]cyclohexyl]-7-azaspiro[3.5]nonan-2-yl]quinoxaline] | 12180
12 | Cn1nc(N2CCC(=O)NC2=O)c2cc(F)c(C3CCC(N4CCC5(CC4)CC(n4cnc6ccc(Oc7c(F)ccc(NS(=O)(=O)C8CCCC8)c7C#N)cc6c4=O)C5)CC3)cc21 (single isomer, unassigned) [Compound 93, N-[2-cyano-3-[3-[7-[4-[3-(2,4-dioxohexahydropyrimidin-1-yl)-5-fluoro-1-methyl-indazol-6-yl]cyclohexyl]-7-azaspiro[3.5]nonan-2-yl]-4-oxo-quinazolin-6-yl]oxy-4-fluoro-phenyl]cyclopentanesulfonamide] | >40000
13 | CCN(C)S(=O)(=O)Nc1ccc(F)c(Oc2ccc3ncn([C@H]4COC5(CCC(N6CCC(c7cc8c(cc7F)c(N7CCC(=O)NC7=O)nn8C)C(F)(F)C6)CC5)C4)c(=O)c3c2)c1C#N (single isomer, unassigned) [Compound 38] | 963.6
